Legend:
[1] = test system: human liver cancer cell line Sk-Hep-1; assay: viability of human liver cancer cell line Sk-Hep-1 after treatment; conditions: for viability of Sk-Hep-1: after 48 hours
[2] = test system: human leukemia cell line K562; assay: viability of human leukemia cell line K562; type: cell-based; conditions: 5-FU alone
Excerpt: (§1) Please refer to FIG. 6A and FIG. 6B.

P53 protein [3] = assay: P53 protein expression of Hep-G2; type: cell-based, human; conditions: Hep-G2 cells, compared with control; concentrations not given
Excerpt: (§2) Referring to FIG. 5A and FIG. 5B.
However, treat Hep-G2 with EGCG can reduce the expression of P53 protein to 0.74-fold.

[4] = test system: human liver cancer cell line Sk-Hep-1; assay: effect on the cell cycle of Sk-Hep-1; type: cell-based
Description: (§3) Please refer to FIG. 4A and FIG. 4B. […] Please further refer to the following Table 1 and Table 2.
As shown in FIG. 4A and Table 1, in the cell cycle of Sk-Hep-1, the percentage of G1, S, and G2 phases are about 43.04%, 30.9%, and 23.75% respectively. When treat the Sk-Hep-1 cells with 10 μM of 5-FU alone, the percentage of G1, S, and G2 phases are about 51.51%, 31.19%, and 17.3% respectively. From the comparison with the control, 5-FU can increase the percentage of G1 phase and reduce the percentage of G2 phase. […] From the results, 5-FU combined with EGCG can effectively interrupt the cell cycle of Sk-Hep-1 cells at G1 phase, and prevent the cell cycle from entering S phase.

[5] = test system: human liver cancer cell line Hep-G2; assay: effect on the cell cycle of Hep-G2; type: cell-based
Description: as §3
Furthermore, as shown in FIG. 4B and Table 2, in the cell cycle of Hep-G2, the percentage of G1, S, and G2 phases are about 52.7%, 26.54%, and 20.76% respectively. When treat the Hep-G2 cells with 10 μM of 5-FU alone, the percentage of G1, S, and G2 phases are about 47.04%, 42.68%, and 10.29% respectively. From the comparison with the control, 5-FU can increase the percentage of S phase and reduce the percentage of G1 phase and G2 phase. […] From the results, 5-FU combined with EGCG can effectively interrupt the cell cycle of Hep-G2 cells at G1 phase, and prevent the cell cycle from entering S phase and G2 phase.

P53 protein [6] = assay: P53 protein expression of Sk-Hep-1; type: cell-based, human; conditions: Sk-Hep-1 cells, compared with control; concentrations not given
Excerpt: as §2

[7] = test system: human leukemia cell line Jurkat T; assay: viability of human leukemia cell line Jurkat T; type: cell-based; conditions: 5-FU alone
Excerpt: as §1

O=c1[nH]cc(F)c(=O)[nH]1 [5-FU, 5-Fluorouracil]
viability at 10 µM ([1]; Homo sapiens, SK-HEP1, 48 h, read-out: viability of Sk-Hep-1): ~75%
effect on the viability of K562 [2]: almost no effect
expression of P53 protein (P53 protein [3]): 1.64 fold
Cell cycle phase G2 (%) ([4]; 5-FU, 10 μM): 17.30 ± 0.3%
Cell cycle phase S (%) ([4]; 5-FU, 10 μM): 31.19 ± 1.4%
Cell cycle phase G2 (%) ([5]; 5-FU, 10 μM): 10.29 ± 2.5%
Cell cycle phase S (%) ([5]; 5-FU, 10 μM): 42.68 ± 2.4%
expression of P53 protein (P53 protein [6]): 1.64 fold
viability of Jurkat T [7]: about 80%

O=C(O[C@@H]1Cc2c(O)cc(O)cc2O[C@@H]1c1cc(O)c(O)c(O)c1)c1cc(O)c(O)c(O)c1 [EGCG, Epigallocatechin gallate]
viability of Sk-Hep-1 ([1]; 50 μM of EGCG): about 90%
viability of Sk-Hep-1 ([1]; 100 μM of EGCG): ~80%
viability of Sk-Hep-1 ([1]; 250 μM of EGCG): ~60%
viability of Sk-Hep-1 ([1]; 500 μM of EGCG): ~50%
expression of P53 protein (P53 protein [3]): 0.74 fold
Cell cycle phase G1 (%) ([4]; EGCG, 50 μM): 54.41 ± 5.4%
Cell cycle phase G2 (%) ([4]; EGCG, 50 μM): 22.09 ± 2.2%
Cell cycle phase S (%) ([4]; EGCG, 50 μM): 23.51 ± 3.2%
Cell cycle phase G1 (%) ([4]; EGCG, 100 μM): 56.60 ± 3.8%
Cell cycle phase G2 (%) ([4]; EGCG, 100 μM): 19.5 ± 0.7%
Cell cycle phase S (%) ([4]; EGCG, 100 μM): 23.90 ± 3.1%
Cell cycle phase G1 (%) ([4]; EGCG, 250 μM): 53.92 ± 1.9%
Cell cycle phase G2 (%) ([4]; EGCG, 250 μM): 17.55 ± 1.7%
Cell cycle phase S (%) ([4]; EGCG, 250 μM): 28.53 ± 2.3%
Cell cycle phase G1 (%) ([5]; EGCG, 50 μM): 62.15 ± 2.4%
Cell cycle phase G2 (%) ([5]; EGCG, 50 μM): 9.33 ± 4.7%
Cell cycle phase S (%) ([5]; EGCG, 50 μM): 28.52 ± 4.3%
Cell cycle phase G1 (%) ([5]; EGCG, 100 μM): 62.23 ± 5.7%
Cell cycle phase G2 (%) ([5]; EGCG, 100 μM): 11.51 ± 4.1%
Cell cycle phase S (%) ([5]; EGCG, 100 μM): 26.26 ± 3.5%
Cell cycle phase G1 (%) ([5]; EGCG, 250 μM): 61.83 ± 1.6%
Cell cycle phase G2 (%) ([5]; EGCG, 250 μM): 9.63 ± 1.7%
Cell cycle phase S (%) ([5]; EGCG, 250 μM): 28.53 ± 1.3%
expression of P53 protein (P53 protein [6]): 1.8 fold

Source: patent US20090068295A1, “Composition for treating cancer and method of using the same” (Chang Gung University, priority 2007, published 2009)
